Test results as given in paper PMC9537276, “A pathway for chitin oxidation in marine bacteria” (Nature Communications, 2022).

Legend:
[1] = molecular target: T1, OngC (Pseudoalteromonas prydzensis, UniProt Z9U939ZVG8); assay: ammonia release assay kit; Q-TOF-MS; format: biochemical; conditions: 10 mM substrate (made in situ by OngB from GlcNAc1A), 10 mM Bis-Tris-HCl pH 7.5, 25 °C
T1 construct: full length, C-terminal His tag, pET22b, E. coli BL21 (DE3)
T1 sequence (Z9U939ZVG8 1-415): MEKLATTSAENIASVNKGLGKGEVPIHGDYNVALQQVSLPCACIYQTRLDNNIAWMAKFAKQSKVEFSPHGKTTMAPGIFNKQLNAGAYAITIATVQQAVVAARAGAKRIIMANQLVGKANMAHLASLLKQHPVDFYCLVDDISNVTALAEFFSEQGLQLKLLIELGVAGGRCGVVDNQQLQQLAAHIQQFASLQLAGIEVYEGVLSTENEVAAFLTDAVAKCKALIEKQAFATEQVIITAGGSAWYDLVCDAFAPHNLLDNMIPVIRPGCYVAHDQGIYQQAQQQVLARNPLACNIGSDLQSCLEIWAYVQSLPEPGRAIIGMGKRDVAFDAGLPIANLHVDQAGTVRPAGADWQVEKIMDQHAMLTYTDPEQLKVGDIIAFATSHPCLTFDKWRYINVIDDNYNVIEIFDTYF

[2] = molecular target: T2, OngB (Pseudoalteromonas prydzensis, UniProt A0A7V1CY72); assay: acetate release assay kit; Q-TOF-MS; format: biochemical; conditions: 25 mM substrate, 10 mM Bis-Tris-HCl pH 7.5, 25 °C, 30 min
T2 construct: gene ENH88_07920; full length, C-terminal His tag, pET22b, E. coli BL21 (DE3)
T2 sequence (A0A7V1CY72 1-489): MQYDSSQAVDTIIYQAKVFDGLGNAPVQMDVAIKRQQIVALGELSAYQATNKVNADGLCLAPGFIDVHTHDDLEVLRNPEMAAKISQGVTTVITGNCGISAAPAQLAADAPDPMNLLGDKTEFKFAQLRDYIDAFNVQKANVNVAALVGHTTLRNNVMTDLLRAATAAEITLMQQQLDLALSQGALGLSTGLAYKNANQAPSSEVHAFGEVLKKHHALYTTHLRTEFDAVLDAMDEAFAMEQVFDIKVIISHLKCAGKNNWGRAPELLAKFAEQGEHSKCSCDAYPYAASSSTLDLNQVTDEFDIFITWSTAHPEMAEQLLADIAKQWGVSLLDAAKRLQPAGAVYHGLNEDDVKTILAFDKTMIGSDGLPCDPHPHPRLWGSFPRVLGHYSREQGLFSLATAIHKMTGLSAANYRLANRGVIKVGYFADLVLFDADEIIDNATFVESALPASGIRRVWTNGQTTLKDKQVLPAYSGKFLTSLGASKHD

Row | Compound | ammonia release assay kit; Q-TOF-MS [1] | acetate release assay kit; Q-TOF-MS [2]
1 | N[C@@H](C(=O)O)[C@@H](O)[C@H](O)[C@H](O)CO [GlcN1A, 2-(amino)-2-deoxy-D-gluconic acid] | OngC can deaminate GlcN1A to produce ammonia and KDG | –
2 | CC(=O)N[C@@H](C(=O)O)[C@@H](O)[C@H](O)[C@H](O)CO [GlcNAc1A, 2-(acetylamino)−2-deoxy-D-gluconic acid] | – | Only OngB was shown to act on GlcNAc1A to produce acetate
